Measured values: patent publication US10730889B2, “Amido spirocyclic amide and sulfonamide derivatives” (Forma TM, LLC, priority 2012, dated 2020)
Where two headings read alike, the source gives them in different places.

Tested on: A2780 cells
Assay: In-vitro cell proliferation assay (SRB, 72 hours)
Assay type: cell-based
Settings: Homo sapiens, A2780 cells, 72 hours, SRB, read-out: Cell Proliferation (IC50)
Experimental: Assay 2: In-Vitro Cell Proliferation Assay
Assay Method. […] The compounds were then further diluted to 10× final concentration in culture media, whereupon 20 μL of each dilution was added to the plated cells with controls (e.g. DMSO and blank) to make a final volume of 200 μL. The final DMSO concentration in each well was 0.1%. The plates were then incubated for 72 hours at 37° C. in a 5% CO2 incubator. The number of viable cells was then assessed using sulforhodamine B (SRB) assay. Cells were fixed at 4° C. for 1 hour with the addition of 50 μL 30% trichloroacetic acid (TCA) to make a final concentration of 6% TCA. The plates were washed four times with H2O and allowed to dry for at least 1 hour, whereupon 100 μL of a 4% SRB in 1% acetic acid solution was added to each well and incubated at room temperature for at least 30 min. The plates were then washed three times with 1% acetic acid, dried, and treated with 100 μL of 10 mM Tris-Base solution. The plates were then read in a microplate reader at an absorbance of 570 nm. Background was generated on a separate plate with media only.
Determination of IC50 Values. First, the signals from the background plate were averaged, then the background was subtracted from the test plates.

With `O=C(NCC1CC12CCN(C(=O)Cc1ccncc1)CC2)c1cc2cnccc2[nH]1` (stereo not shown) [Example 278, N-[[6-[2-(4-pyridyl)acetyl]-6-azaspiro[2.5]octan-2-yl]methyl]-1H-pyrrolo[3,2-c]pyridine-2-carboxamide] as the compound, how does the IC50 (A2780, 72 h) read?
The IC50 was 2000 nM.

With `Cn1nnc(-c2ccc(C(=O)N3CCC4(CC3)CC4CNC(=O)c3cc4ccncc4o3)cc2)n1` (stereo not shown) [Example 280] as the compound, how does the IC50 (A2780, 72 h) read?
Its IC50 is 6.83 nM.

How did the IC50 (A2780, 72 h) turn out when `Cc1cc(C)c(C(=O)N2CCC3(CC2)CC3CNC(=O)c2cc3ccncc3o2)cn1` (stereo not shown) [Example 281, N-[[6-(4,6-dimethylpyridine-3-carbonyl)-6-azaspiro[2.5]octan-2-yl)methyl]furo[2,3-c]pyridine-2-carboxamide] was run?
Its IC50 is 18.5 nM.

For `O=C(Cc1ncccn1)N1CCC2(CC1)CC2CNC(=O)N1Cc2ccncc2C1` (stereo not shown) [Example 286, N-[[6-(2-pyrimidin-2-ylacetyl)-6-azaspiro[2.5]octan-2-yl]methyl]-1,3-dihydropyrrolo[3,4-c]pyridine-2-carboxamide], which IC50 is on record?
The IC50 was 27 nM.

For `Cc1nn(C(C)(C)C)c(C)c1C(=O)N1CCC2(CC1)CC2CNC(=O)c1cc2ccncc2o1` (stereo not shown) [Example 294, N-[[6-(1-tert-butyl-3,5-dimethyl-pyrazole-4-carbonyl)-6-azaspiro[2.5]octan-2-yl]methyl]furo[2,3-c]pyridine-2-carboxamide], which IC50 (A2780, 72 h) is on record?
The IC50 was 12.1 nM.

Which IC50 (A2780, 72 h) does the source give for `Cc1nn(Cc2ccccc2)c(C)c1C(=O)N1CCC2(CC1)CC2CNC(=O)c1cc2ccncc2o1` (stereo not shown) [Example 295, N-[[6-(1-benzyl-3,5-dimethyl-pyrazole-4-carbonyl)-6-azaspiro[2.5]octan-2-yl]methyl]furo[2,3-c]pyridine-2-carboxamide] here?
Its IC50 is 0.944 nM.

Which IC50 (A2780, 72 h) does the source give for `Cn1nc(C(C)(C)C)cc1C(=O)N1CCC2(CC1)CC2CNC(=O)c1cc2ccncc2o1` (stereo not shown) [Example 296, N-[[6-(5-tert-butyl-2-methyl-pyrazole-3-carbonyl)-6-azaspiro[2.5]octan-2-yl]methyl]furo[2,3-c]pyridine-2-carboxamide] here?
Its IC50 is 10.8 nM.

`CCn1nccc1C(=O)N1CCC2(CC1)CC2CNC(=O)c1cc2ccncc2o1` (stereo not shown) [Example 297, N-[[6-(2-ethylpyrazole-3-carbonyl)-6-azaspiro[2.5]octan-2-yl]methyl]furo[2,3-c]pyridine-2-carboxamide] was tested. Which IC50 (A2780, 72 h) did it give?
The IC50 was 278 nM.

For `Cc1cnn(C(C)(C)C)c1C(=O)N1CCC2(CC1)CC2CNC(=O)c1cc2ccncc2o1` (stereo not shown) [Example 298, N-[[6-(2-tert-butyl-4-methyl-pyrazole-3-carbonyl)-6-azaspiro[2.5]octan-2-yl]methyl]furo[2,3-c]pyridine-2-carboxamide], which IC50 (A2780, 72 h) is on record?
Its IC50 is 103 nM.

How did the IC50 (A2780, 72 h) turn out when `Cc1cnn(C)c1C(=O)N1CCC2(CC1)CC2CNC(=O)c1cc2ccncc2o1` (stereo not shown) [Example 299, N-[[6-(2,4-dimethylpyrazole-3-carbonyl)-6-azaspiro[2.5]octan-2-yl]methyl]furo[2,3-c]pyridine-2-carboxamide] was run?
The IC50 was 249 nM.

How did the IC50 (A2780, 72 h) turn out when `O=C(NCC1CC12CCN(C(=O)c1n[nH]c3ccccc13)CC2)c1cc2ccncc2o1` (stereo not shown) [Example 302, N-[[6-(1H-indazole-3-carbonyl)-6-azaspiro[2.5]octan-2-yl]methyl]furo(2,3-c]pyridine-2-carboxamide] was run?
Its IC50 is 90.3 nM.

With `CC(C)N1CCC(n2cc(C(=O)N3CCC4(CC3)CC4CNC(=O)c3cc4ccncc4o3)cn2)C1` (stereo not shown) [Example 303, N-[[6-(1-(1-isopropylpyrrolidin-3-yl)pyrazole-4-carbonyl]-6-azaspiro[2.5]octan-2-yl]methyl]furo[2,3-c]pyridine-2-carboxamide] as the compound, how does the IC50 (A2780, 72 h) read?
The IC50 was 2000 nM.

For `Cc1nn(C)cc1-c1cc(C(=O)N2CCC3(CC2)CC3CNC(=O)c2cc3ccncc3o2)no1` (stereo not shown) [Example 305, N-[[6-[5-(1,3-dimethylpyrazol-4-yl)isoxazole-3-carbonyl]-6-azaspiro[2.5]octan-2-yl]methyl]furo[2,3-c]pyridine-2-carboxamide], which IC50 (A2780, 72 h) is on record?
Its IC50 is 61.2 nM.

How did the IC50 (A2780, 72 h) turn out when `CC(C)(C)OC(=O)N1Cc2[nH]nc(C(=O)N3CCC4(CC3)CC4CNC(=O)c3cc4ccncc4o3)c2C1` (stereo not shown) [Example 306, tert-butyl 3-[2-[(furo[2,3-c]pyridine-2-carbonylamino)methyl]-6-azaspiro[2.5]octane-6-carbonyl]-4,6-dihydro-1H-pyrrolo[3,4-c]pyrazole-5-carboxylate] was run?
The IC50 was 38.8 nM.

With `CN1CCC(n2cc(C(=O)N3CCC4(CC3)CC4CNC(=O)c3cc4ccncc4o3)cn2)C1` (stereo not shown) [Example 307, N-[[6-[1-(1-methylpyrrolidin-3-yl)pyrazole-4-carbonyl]-6-azaspiro[2.5]octan-2-yl]methyl]furo[2,3-c]pyridine-2-carboxamide] as the compound, how does the IC50 (A2780, 72 h) read?
The IC50 was 26.7 nM.

With `Cc1cc(C(=O)N2CCC3(CC2)CC3CNC(=O)c2cc3ccncc3o2)n(C(C)(C)C)n1` (stereo not shown) [Example 308, N-[[6-(2-tert-butyl-5-methyl-pyrazole-3-carbonyl)-6-azaspiro[2.5]octan-2-yl]methyl]furo[2,3-c]pyridine-2-carboxamide] as the compound, how does the IC50 (A2780, 72 h) read?
Its IC50 is 2000 nM.

Which IC50 (A2780, 72 h) does the source give for `Cc1nc2ccccn2c1C(=O)N1CCC2(CC1)CC2CNC(=O)c1cc2ccncc2o1` (stereo not shown) [Example 309, N-[[6-(2-methylimidazo[1,2-a]pyridine-3-carbonyl)-6-azaspiro[2.5]octan-2-yl]methyl]furo[2,3-c]pyridine-2-carboxamide] here?
Its IC50 is 24.7 nM.

For `Cc1ccc2nc(C(=O)N3CCC4(CC3)CC4CNC(=O)c3cc4ccncc4o3)[nH]c2c1` (stereo not shown) [Example 310, N-[[6-(6-methyl-1H-benzimidazole-2-carbonyl)-6-azaspiro[2.5]octan-2-yl]methyl]furo[2,3-c]pyridine-2-carboxamide], which IC50 (A2780, 72 h) is on record?
The IC50 was 30.8 nM.

How did the IC50 (A2780, 72 h) turn out when `Cc1cccc2nc(C(=O)N3CCC4(CC3)CC4CNC(=O)c3cc4ccncc4o3)cn12` (stereo not shown) [Example 311, N-[[6-(5-methylimidazo[1,2-a]pyridine-2-carbonyl)-6-azaspiro[2.5]octan-2-yl]methyl]furo[2,3-c]pyridine-2-carboxamide] was run?
The IC50 was 12.1 nM.

For `O=C(NCC1CC12CCN(C(=O)c1n[nH]c3cc(F)ccc13)CC2)c1cc2ccncc2o1` (stereo not shown) [Example 312, N-[[6-(6-fluoro-1H-indazole-3-carbonyl)-6-azaspiro[2.5]octan-2-yl]methyl]furo[2,3-c]pyridine-2-carboxamide], which IC50 (A2780, 72 h) is on record?
Its IC50 is 9.61 nM.

How did the IC50 (A2780, 72 h) turn out when `O=C(NCC1CC12CCN(C(=O)c1cc3ncccn3n1)CC2)c1cc2ccncc2o1` (stereo not shown) [Example 313, N-[[6-(pyrazolo[1,5-a]pyrimidine-2-carbonyl)-6-azaspiro[2.5]octan-2-yl]methyl]furo[2,3-c]pyridine-2-carboxamide] was run?
Its IC50 is 15.9 nM.

Which IC50 (A2780, 72 h) does the source give for `CCn1nc(C)c(C(=O)N2CCC3(CC2)CC3CNC(=O)c2cc3ccncc3o2)c1C` (stereo not shown) [Example 314, N-[[6-(1-ethyl-3,5-dimethyl-pyrazole-4-carbonyl)-6-azaspiro[2.5]octan-2-yl]methyl]furo[2,3-c]pyridine-2-carboxamide] here?
Its IC50 is 6.76 nM.

For `Cc1ccc2nc(C(=O)N3CCC4(CC3)CC4CNC(=O)c3cc4ccncc4o3)cn2c1` (stereo not shown) [Example 315, N-[[6-(6-methylimidazo[1,2-a]pyridine-2-carbonyl)-6-azaspiro[2.5]octan-2-yl]methyl]furo[2,3-c]pyridine-2-carboxamide], which IC50 (A2780, 72 h) is on record?
The IC50 was 104 nM.

`O=C(NCC1CC12CCN(C(=O)c1cnn3ccccc13)CC2)c1cc2ccncc2o1` (stereo not shown) [Example 316, N-[[6-(pyrazolo[1,5-a]pyridine-3-carbonyl)-6-azaspiro[2.5]octan-2-yl]methyl]furo[2,3-c]pyridine-2-carboxamide] was tested. Which IC50 (A2780, 72 h) did it give?
Its IC50 is 2000 nM.

With `CC(C)c1oncc1C(=O)N1CCC2(CC1)CC2CNC(=O)c1cc2ccncc2o1` (stereo not shown) [Example 318, N-[[6-(5-isopropylisoxazole-4-carbonyl)-6-azaspiro[2.5]octan-2-yl]methyl]furo[2,3-c]pyridine-2-carboxamide] as the compound, how does the IC50 (A2780, 72 h) read?
Its IC50 is 2000 nM.

With `CC(C)Cc1cc(C(=O)N2CCC3(CC2)CC3CNC(=O)c2cc3ccncc3o2)[nH]n1` (stereo not shown) [Example 319, N-[[6-(3-isobutyl-1H-pyrazole-5-carbonyl)-6-azaspiro[2.5]octan-2-yl]methyl]furo[2,3-c]pyridine-2-carboxamide] as the compound, how does the IC50 (A2780, 72 h) read?
Its IC50 is 55 nM.

Which IC50 (A2780, 72 h) does the source give for `O=C(NCC1CC12CCN(C(=O)c1cn3cccnc3n1)CC2)c1cc2ccncc2o1` (stereo not shown) [Example 320, N-[[6-(imidazo[1,2-a]pyrimidine-2-carbonyl)-6-azaspiro[2.5]octan-2-yl]methyl]furo[2,3-c]pyridine-2-carboxamide] here?
The IC50 was 549 nM.

`O=C(NCC1CC12CCN(C(=O)c1cnn3cccnc13)CC2)c1cc2ccncc2o1` (stereo not shown) [Example 321, N-[[6-(pyrazolo[1,5-a]pyrimidine-3-carbonyl)-6-azaspiro[2.5]oclan-2-yl]methyl]furo[2,3-c]pyridine-2-carboxamide] was tested. Which IC50 (A2780, 72 h) did it give?
Its IC50 is 2000 nM.

How did the IC50 (A2780, 72 h) turn out when `CC(C)(C)c1cc(C(=O)N2CCC3(CC2)CC3CNC(=O)c2cc3ccncc3o2)[nH]n1` (stereo not shown) [Example 322, N-[[6-(3-tert-butyl-1H-pyrazole-5-carbonyl)-6-azaspiro[2.5]octan-2-yl]methyl]furo[2,3-c]pyridine-2-carboxamide] was run?
Its IC50 is 15.1 nM.

How did the IC50 (A2780, 72 h) turn out when `CC(C)c1cc(C(=O)N2CCC3(CC2)CC3CNC(=O)c2cc3ccncc3o2)n[nH]1` (stereo not shown) [Example 323, N-[[6-(5-isopropyl-1H-pyrazole-3-carbonyl)-6-azaspiro[2.5]octan-2-yl]methyl]furo[2,3-c]pyridine-2-carboxamide] was run?
Its IC50 is 2000 nM.

With `CC(C)c1n[nH]cc1C(=O)N1CCC2(CC1)CC2CNC(=O)c1cc2ccncc2o1` (stereo not shown) [Example 324, N-[[6-(3-isopropyl-1H-pyrazole-4-carbonyl)-6-azaspiro[2.5]octan-2-yl]methyl]furo[2,3-c]pyridine-2-carboxamide] as the compound, how does the IC50 (A2780, 72 h) read?
The IC50 was 109 nM.

Which IC50 (A2780, 72 h) does the source give for `CC(C)n1nccc1C(=O)N1CCC2(CC1)CC2CNC(=O)c1cc2ccncc2o1` (stereo not shown) [Example 325, N-[[6-(2-isopropylpyrazole-3-carbonyl)-6-azaspiro[2.5]octan-2-yl]methy]furo[2,3-c]pyridine-2-carboxamide] here?
Its IC50 is 24.7 nM.

How did the IC50 (A2780, 72 h) turn out when `CCc1cc(C(=O)N2CCC3(CC2)CC3CNC(=O)c2cc3ccncc3o2)n(C)n1` (stereo not shown) [Example 326, N-[[6-(5-ethyl-2-methyl-pyrazole-3-carbonyl)-6-azaspiro[2.5]octan-2-yl]methyl]furo[2,3-c]pyridine-2-carboxamide] was run?
Its IC50 is 10.9 nM.

Which IC50 (A2780, 72 h) does the source give for `O=C(NCC1CC12CCN(C(=O)c1cc(C3CC3)on1)CC2)c1cc2ccncc2o1` (stereo not shown) [Example 327, N-[[6-(5-cyclopropylisoxazole-3-carbonyl)-6-azaspiro[2.5]octan-2-yl]methyl]furo[2,3-c]pyridine-2-carboxamide] here?
The IC50 was 77.6 nM.
